Source: PubChem BioAssay (NCI)
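96-well plates; 48 h exposure; 5 concentrations. Endpoints by linear interpolation between flanking doses. Not reached: highest tested concentration assigned. Definition used: TGI = concentration required for complete inhibition of growth.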

How the values were obtained:
Assay in all cases: NCI tumour cell line growth inhibition, 48 h
[1] = test system: NCI-H522 lung
[2] = test system: OVCAR-3 ovarian
[3] = test system: EKVX NSCLC
[4] = test system: LOX IMVI melanoma
[5] = test system: CAKI-1 renal
[6] = test system: KM12 colon
[7] = test system: SK-MEL-2 melanoma
[8] = test system: U251 CNS
[9] = test system: UACC-62 melanoma
[10] = test system: SNB-75 CNS
[11] = test system: NCI-H460 lung
[12] = test system: SF-268 CNS
[13] = test system: MDA-MB-435
[14] = test system: MDA-MB-231 breast
[15] = test system: T-47D breast
[16] = test system: SK-OV-3 ovarian
[17] = test system: ACHN renal
[18] = test system: HT29 colon
[19] = test system: A549 NSCLC
[20] = test system: SF-295 CNS

## COc1ccc(/C(C)=N/NC(=S)N(C)C)c(O)c1
[1]
  TGI: > 100 µM
[2]
  TGI: > 100 µM
[3]
  TGI: > 100 µM
[4]
  TGI: 12.4 µM
[5]
  TGI: 96.6 µM
[6]
  TGI: > 100 µM
[7]
  TGI: > 100 µM
[8]
  TGI: > 100 µM
[9]
  TGI: 20.1 µM
[10]
  TGI: > 100 µM
[11]
  TGI: > 100 µM
[12]
  TGI: > 100 µM
[13]
  TGI: > 100 µM
[14]
  TGI: > 100 µM
[15]
  TGI: > 100 µM
[16]
  TGI: > 100 µM
[17]
  TGI: > 100 µM
[18]
  TGI: > 100 µM
[19]
  TGI: > 100 µM
[20]
  TGI: > 100 µM
